# Patent publication US10934296B2, “4-imidazopyridazin-1-yl-benzamides as Btk inhibitors” (Merck Sharp & Dohme B.V., priority 2011, dated 2021)
# Target: Btk enzyme (His-Btk) (Homo sapiens (Human), UniProt Q06187)
# Experiment: Btk enzyme activity, IMAP fluorescence polarization assay
# Details: 60 min pre-incubation, 5 μM ATP, bin bounds in nM
# Chain of Btk enzyme (His-Btk) (Q06187 whole entry): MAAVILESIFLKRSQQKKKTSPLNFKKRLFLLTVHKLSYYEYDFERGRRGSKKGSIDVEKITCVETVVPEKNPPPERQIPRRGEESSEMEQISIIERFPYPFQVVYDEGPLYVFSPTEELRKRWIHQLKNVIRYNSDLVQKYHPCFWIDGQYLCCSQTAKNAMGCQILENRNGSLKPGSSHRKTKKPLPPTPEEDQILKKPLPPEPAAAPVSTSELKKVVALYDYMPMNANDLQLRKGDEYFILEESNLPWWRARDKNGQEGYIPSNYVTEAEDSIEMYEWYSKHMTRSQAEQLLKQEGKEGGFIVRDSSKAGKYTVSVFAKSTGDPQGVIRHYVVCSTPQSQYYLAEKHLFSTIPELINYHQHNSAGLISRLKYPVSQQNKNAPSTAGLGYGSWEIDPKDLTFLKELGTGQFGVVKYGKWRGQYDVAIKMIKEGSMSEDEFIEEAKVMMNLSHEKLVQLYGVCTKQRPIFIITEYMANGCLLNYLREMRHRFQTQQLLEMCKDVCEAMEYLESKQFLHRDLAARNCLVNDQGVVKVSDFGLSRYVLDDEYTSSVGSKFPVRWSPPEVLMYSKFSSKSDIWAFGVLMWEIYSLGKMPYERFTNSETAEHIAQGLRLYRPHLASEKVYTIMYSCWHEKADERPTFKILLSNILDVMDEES
row,EC50 Btk activity values,SMILES
1,<100 nM,"Nc1nccn2c([C@@H]3CCCN3C(=O)/C=C/CN3CCCC3)nc(-c3ccc(C(=O)Nc4ccccn4)cc3)c12 [Example 2, (S,E)-4-(8-amino-3-(1-(4-(pyrrolidin-1-yl)but-2-enoyl)pyrrolidin-2-yl)imidazo[1,5-a]pyrazin-1-yl)-N-(pyridin-2-yl)benzamide]"
2,<100 nM,"COC/C=C/C(=O)N1CCC[C@H]1c1nc(-c2ccc(C(=O)Nc3ccccn3)cc2)c2c(N)nccn12 [Example 4, (S,E)-4-(8-amino-3-(1-(4-methoxybut-2-enoyl)pyrrolidin-2-yl)imidazo[1,5-a]pyrazin-1-yl)-N-(pyridin-2-yl)benzamide]"
3,<100 nM,"Nc1nccn2c([C@@H]3CCCN3C(=O)c3ccnc(Cl)n3)nc(-c3ccc(C(=O)Nc4ccccn4)cc3)c12 [Example 5, (S)-4-(8-amino-3-(1-(2-chloropyrimidine-4-carbonyl)pyrrolidin-2-yl)imidazo[1,5-a]pyrazin-1-yl)-N-(pyridin-2-yl)benzamide]"
4,<100 nM,"CN(C)C/C=C/C(=O)N1CCC[C@H]1c1nc(-c2ccc(C(=O)Nc3cc(F)ccn3)cc2)c2c(N)nccn12 [Example 7, (S,E)-4-(8-Amino-3-(1-(4-(dimethylamino)but-2-enoyl)pyrrolidin-2-yl)imidazo[1,5-a]pyrazin-1-yl)-N-(4-fluoropyridin-2-yl)benzamide]"
5,<100 nM,"CCc1ccnc(NC(=O)c2ccc(-c3nc([C@@H]4CCCN4C(=O)/C=C/COC)n4ccnc(N)c34)cc2)c1 [Example 11, (S,E)-4-(8-Amino-3-(1-(4-methoxybut-2-enoyl)pyrrolidin-2-yl)-imidazo[1,5-a]pyrazin-1-yl)-N-(4-ethylpyridin-2-yl)benzamide]"
6,<100 nM,"CC#CC(=O)N1CCCC[C@H]1c1nc(-c2ccc(C(=O)Nc3ccon3)cc2)c2c(N)nccn12 [Example 24, (S)-4-(8-Amino-3-(1-but-2-ynoylpiperidin-2-yl)imidazo[1,5-a]pyrazin-1-yl)-N-(isoxazol-3-yl)benzamide]"
7,<100 nM,"CN(C)CC#CC(=O)N1CCC[C@H]1c1nc(-c2ccc(C(=O)Nc3ccccn3)cc2)c2c(N)nccn12 [Example 40, (S)-4-(8-Amino-3-(1-(4-(dimethylamino)but-2-ynoyl)pyrrolidin-2-yl)imidazo[1,5-a]pyrazin-1-yl)-N-(pyridin-2-yl)benzamide]"
8,<100 nM,"COCC#CC(=O)N1CCC[C@H]1c1nc(-c2ccc(C(=O)Nc3ccccn3)cc2)c2c(N)nccn12 [Example 41, (S)-4-(8-Amino-3-(1-(4-methoxybut-2-ynoyl)pyrrolidin-2-yl)imidazo[1,5-a]pyrazin-1-yl)-N-(pyridin-2-yl)benzamide]"
9,<100 nM,"CC#CC(=O)N1CCC[C@H]1c1nc(-c2ccc(C(=O)Nc3ccccn3)c(F)c2)c2c(N)nccn12 [Example 50, (S)-4-(8-amino-3-(1-but-2-ynoylpyrrolidin-2-yl)imidazo[1,5-a]pyrazin-1-yl)-2-fluoro-N-(pyridin-2-yl)benzamide]"
10,<100 nM,"COC/C=C/C(=O)N1CCC[C@H]1c1nc(-c2ccc(C(=O)Nc3cc(OC)ccn3)cc2)c2c(N)nccn12 [Example 51, (S,E)-4-(8-amino-3-(1-(4-methoxybut-2-enoyl)pyrrolidin-2-yl)imidazo[1,5-a]pyrazin-1-yl)-N-(4-methoxypyridin-2-yl)benzamide]"
11,<100 nM,"Cc1cc(C(=O)Nc2ccccn2)ccc1-c1nc([C@@H]2CCCCN2C(=O)c2ccnc(Cl)n2)n2ccnc(N)c12 [Example 56, 4-(8-amino-3-((S)-1-(2-chloropyrimidine-4-carbonyl)piperidin-2-yl)imidazo[1,5-a]pyrazin-1-yl)-3-methyl-N-(pyridin-2-yl)benzamide]"
12,<100 nM,"COC/C=C/C(=O)N1CCC[C@H]1c1nc(-c2ccc(C(=O)Nc3cc(C)ccn3)cc2)c2c(N)nccn12 [Example 57, (S,E)-4-(8-amino-3-(1-(4-methoxybut-2-enoyl)pyrrolidin-2-yl)imidazo[1,5-a]pyrazin-1-yl)-N-(4-methylpyridin-2-yl)benzamide]"
13,<100 nM,"COC/C=C/C(=O)N1CCC[C@H]1c1nc(-c2ccc(C(=O)Nc3cc(C(C)C)ccn3)cc2)c2c(N)nccn12 [Example 58, (S,E)-4-(8-amino-3-(1-(4-methoxybut-2-enoyl)pyrrolidin-2-yl)imidazo[1,5-a]pyrazin-1-yl)-N-(4-isopropylpyridin-2-yl)benzamide]"
14,<100 nM,"Cc1ccnc(NC(=O)c2ccc(-c3nc([C@@H]4CCCN4C(=O)/C=C/CN(C)C)n4ccnc(N)c34)cc2)c1 [Example 59, (S,E)-4-(8-amino-3-(1-(4-(dimethylamino)but-2-enoyl)pyrrolidin-2-yl)imidazo[1,5-a]pyrazin-1-yl)-N-(4-methylpyridin-2-yl)benzamide]"
15,<100 nM,"CN(C)C/C=C/C(=O)NCc1nc(-c2ccc(C(=O)Nc3ccccn3)cc2)c2c(N)nccn12 [Example 69, (E)-4-(8-amino-3-((4-(dimethylamino)but-2-enamido)methyl)imidazo[1,5-a]pyrazin-1-yl)-N-(pyridin-2-yl)benzamide]"
16,<100 nM,"CC(C)c1ccnc(NC(=O)c2ccc(-c3nc([C@@H]4CCCN4C(=O)c4ccnc(Cl)n4)n4ccnc(N)c34)cc2)c1 [Example 70, (S)-4-(8-amino-3-(1-(2-chloropyrimidine-4-carbonyl)pyrrolidin-2-yl)imidazo[1,5-a]pyrazin-1-yl)-N-(4-isopropylpyridin-2-yl)benzamide]"
17,<100 nM,"Nc1nccn2c([C@@H]3CCCN3C(=O)c3ccnc(Cl)n3)nc(-c3ccc(C(=O)Nc4nc5c(s4)CCCC5)cc3)c12 [Example 71, (S)-4-(8-amino-3-(1-(2-chloropyrimidine-4-carbonyl)pyrrolidin-2-yl)imidazo[1,5-a]pyrazin-1-yl)-N-(4,5,6,7-tetrahydrobenzo[d]thiazol-2-yl)benzamide]"
18,<100 nM,"CN(C)C/C=C/C(=O)N1CCCC[C@H]1c1nc(-c2ccc(C(=O)Nc3cccnn3)cc2)c2c(N)nccn12 [Example 73, (S,E)-4-(8-amino-3-(1-(4-(dimethylamino)but-2-enoyl)piperidin-2-yl)imidazo[1,5-a]pyrazin-1-yl)-N-(pyridazin-3-yl)benzamide]"
19,<100 nM,"Nc1nccn2c([C@@H]3CCCCN3C(=O)c3ccnc(Cl)n3)nc(-c3ccc(C(=O)Nc4cc(F)ccn4)cc3)c12 [Example 80, (S)-4-(8-amino-3-(1-(2-chloropyrimidine-4-carbonyl)piperidin-2-yl)imidazo[1,5-a]pyrazin-1-yl)-N-(4-fluoropyridin-2-yl)benzamide]"
20,<100 nM,"COC/C=C/C(=O)N1CCCC[C@H]1c1nc(-c2ccc(C(=O)Nc3cc(F)ccn3)cc2)c2c(N)nccn12 [Example 81, (S,E)-4-(8-amino-3-(1-(4-methoxybut-2-enoyl)piperidin-2-yl)imidazo[1,5-a]pyrazin-1-yl)-N-(4-fluoropyridin-2-yl)benzamide]"
21,<100 nM,"COC/C=C/C(=O)N1CCC[C@H]1c1nc(-c2ccc(C(=O)Nc3nc4c(s3)CCCC4)cc2)c2c(N)nccn12 [Example 82, (S,E)-4-(8-amino-3-(1-(4-methoxybut-2-enoyl)pyrrolidin-2-yl)imidazo[1,5-a]pyrazin-1-yl)-N-(4,5,6,7-tetrahydrobenzo[d]thiazol-2-yl)benzamide]"
22,<100 nM,"COc1cc(-c2nc([C@@H]3CCCN3C(=O)c3ccnc(Cl)n3)n3ccnc(N)c23)ccc1C(=O)Nc1ccccn1 [Example 83, (S)-4-(8-amino-3-(1-(2-chloropyrimidine-4-carbonyl)pyrrolidin-2-yl)imidazo[1,5-a]pyrazin-1-yl)-2-methoxy-N-(pyridin-2-yl)benzamide]"

# Same assay, conditions: 60 min pre-incubation, 5 μM ATP, bin bounds in μM
row,EC50 Btk activity values,SMILES
1,<1000 nM,COC/C=C/C(=O)N1CCC[C@H]1c1nc(-c2ccc(C(=O)Nc3ccccn3)c(F)c2)c2c(N)nccn12 [Example 52]
2,<1000 nM,"COC/C=C/C(=O)N1CCC[C@H]1c1nc(-c2ccc(C(=O)Nc3cc(F)ccn3)cc2)c2c(N)nccn12 [Example 53, (S,E)-4-(8-amino-3-(1-(4-methoxybut-2-enoyl)pyrrolidin-2-yl)imidazo[1,5-a]pyrazin-1-yl)-N-(4-fluoropyridin-2-yl)benzamide]"
3,<1000 nM,"COC/C=C/C(=O)N1CCCC[C@H]1c1nc(-c2ccc(C(=O)Nc3ccon3)cc2)c2c(N)nccn12 [Example 54, (S,E)-4-(8-amino-3-(1-(4-methoxybut-2-enoyl)piperidin-2-yl)imidazo[1,5-a]pyrazin-1-yl)-N-(isoxazol-3-yl)benzamide]"
4,<1000 nM,"COC/C=C/C(=O)N1CCCC[C@H]1c1nc(-c2ccc(C(=O)Nc3ncccn3)cc2)c2c(N)nccn12 [Example 55, (S,E)-4-(8-amino-3-(1-(4-methoxybut-2-enoyl)piperidin-2-yl)imidazo[1,5-a]pyrazin-1-yl)-N-(pyrimidin-2-yl)benzamide]"
5,<1000 nM,"C=CC(=O)N1CCCC[C@H]1c1nc(-c2ccc(C(=O)Nc3ccccn3)cc2C)c2c(N)nccn12 [Example 68, 4-(3-((S)-1-acryloylpiperidin-2-yl)-8-aminoimidazo[1,5-a]pyrazin-1-yl)-3-methyl-N-(pyridin-2-yl)benzamide]"
6,<1000 nM,"COC/C=C/C(=O)N1CCCC[C@H]1c1nc(-c2ccc(C(=O)Nc3cccnn3)cc2)c2c(N)nccn12 [Example 72, (S,E)-4-(8-amino-3-(1-(4-methoxybut-2-enoyl)piperidin-2-yl)imidazo[1,5-a]pyrazin-1-yl)-N-(pyridazin-3-yl)benzamide]"
7,<1000 nM,"Nc1nccn2c([C@@H]3CCCCN3C(=O)c3ccnc(Cl)n3)nc(-c3ccc(C(=O)Nc4cccnn4)cc3)c12 [Example 74, (S)-4-(8-amino-3-(1-(2-chloropyrimidine-4-carbonyl)piperidin-2-yl)imidazo[1,5-a]pyrazin-1-yl)-N-(pyridazin-3-yl)benzamide]"
